pEC50, pIC50: −log10 of the molar value.
Key:
[1] = target: T1, Progesterone receptor (Homo sapiens, UniProt P06401); experiment: Activity at progesterone receptor assessed as alkaline phosphatase activity in human T47D cells; format: cell-based
T1 sequence (P06401 whole entry): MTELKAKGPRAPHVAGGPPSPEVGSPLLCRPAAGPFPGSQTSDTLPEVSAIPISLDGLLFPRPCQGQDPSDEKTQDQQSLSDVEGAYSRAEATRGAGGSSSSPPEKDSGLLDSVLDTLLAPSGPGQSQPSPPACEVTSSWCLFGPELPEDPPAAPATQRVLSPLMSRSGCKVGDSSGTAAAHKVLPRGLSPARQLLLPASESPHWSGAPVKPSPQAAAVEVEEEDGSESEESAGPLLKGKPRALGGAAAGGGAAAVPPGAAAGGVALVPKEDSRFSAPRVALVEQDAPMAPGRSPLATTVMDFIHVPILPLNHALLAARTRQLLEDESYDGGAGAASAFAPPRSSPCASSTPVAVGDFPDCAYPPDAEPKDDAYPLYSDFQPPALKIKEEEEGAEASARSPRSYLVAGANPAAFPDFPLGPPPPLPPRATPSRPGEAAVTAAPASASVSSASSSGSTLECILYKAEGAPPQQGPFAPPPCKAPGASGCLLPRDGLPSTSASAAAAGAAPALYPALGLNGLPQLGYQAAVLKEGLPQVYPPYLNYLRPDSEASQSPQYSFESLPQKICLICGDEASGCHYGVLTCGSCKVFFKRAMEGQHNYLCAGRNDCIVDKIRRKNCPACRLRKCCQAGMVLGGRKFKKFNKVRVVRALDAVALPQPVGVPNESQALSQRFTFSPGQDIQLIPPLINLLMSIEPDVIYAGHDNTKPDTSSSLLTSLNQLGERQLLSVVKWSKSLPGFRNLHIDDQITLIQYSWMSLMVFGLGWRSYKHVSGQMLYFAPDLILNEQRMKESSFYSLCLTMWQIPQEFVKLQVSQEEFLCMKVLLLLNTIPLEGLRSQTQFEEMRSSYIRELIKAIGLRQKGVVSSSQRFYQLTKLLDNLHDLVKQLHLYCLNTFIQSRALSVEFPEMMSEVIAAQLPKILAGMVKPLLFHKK

[2] = target: T1, Progesterone receptor; experiment: Antagonist activity at progesterone receptor assessed as progesterone-induced alkaline phosphatase activity in human T47D cells; format: functional, cell-based
[3] = target: T1, Progesterone receptor; experiment: Displacement of [3H]progesterone from progesterone receptor in human T47D cells; format: cell-based
[4] = target: T2, Estrogen receptor (Homo sapiens, UniProt P03372); experiment: Antagonist activity at estrogen receptor by Gal4-DNA binding domain-hormone receptor LBD one-hybrid assay
T2 sequence (P03372 whole entry): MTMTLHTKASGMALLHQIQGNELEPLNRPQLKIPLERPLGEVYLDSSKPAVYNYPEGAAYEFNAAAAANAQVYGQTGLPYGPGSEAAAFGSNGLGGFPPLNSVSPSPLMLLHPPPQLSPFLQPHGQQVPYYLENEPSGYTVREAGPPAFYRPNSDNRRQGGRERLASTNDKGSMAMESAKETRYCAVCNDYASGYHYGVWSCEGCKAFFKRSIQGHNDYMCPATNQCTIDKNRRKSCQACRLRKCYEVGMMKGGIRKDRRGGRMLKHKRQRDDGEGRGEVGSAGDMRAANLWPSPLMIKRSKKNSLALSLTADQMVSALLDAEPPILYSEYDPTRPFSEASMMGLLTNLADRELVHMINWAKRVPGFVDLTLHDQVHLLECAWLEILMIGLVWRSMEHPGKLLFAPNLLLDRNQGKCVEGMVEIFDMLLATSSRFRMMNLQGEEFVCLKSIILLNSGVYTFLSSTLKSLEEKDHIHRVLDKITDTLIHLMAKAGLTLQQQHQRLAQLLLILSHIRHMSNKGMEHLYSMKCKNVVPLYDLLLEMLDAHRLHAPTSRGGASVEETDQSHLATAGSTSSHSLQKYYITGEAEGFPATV

[5] = target: T3, Androgen receptor (Homo sapiens, UniProt P10275); experiment: Antagonist activity at androgen receptor by Gal4-DNA binding domain-hormone receptor LBD one-hybrid assay
T3 sequence (P10275 whole entry): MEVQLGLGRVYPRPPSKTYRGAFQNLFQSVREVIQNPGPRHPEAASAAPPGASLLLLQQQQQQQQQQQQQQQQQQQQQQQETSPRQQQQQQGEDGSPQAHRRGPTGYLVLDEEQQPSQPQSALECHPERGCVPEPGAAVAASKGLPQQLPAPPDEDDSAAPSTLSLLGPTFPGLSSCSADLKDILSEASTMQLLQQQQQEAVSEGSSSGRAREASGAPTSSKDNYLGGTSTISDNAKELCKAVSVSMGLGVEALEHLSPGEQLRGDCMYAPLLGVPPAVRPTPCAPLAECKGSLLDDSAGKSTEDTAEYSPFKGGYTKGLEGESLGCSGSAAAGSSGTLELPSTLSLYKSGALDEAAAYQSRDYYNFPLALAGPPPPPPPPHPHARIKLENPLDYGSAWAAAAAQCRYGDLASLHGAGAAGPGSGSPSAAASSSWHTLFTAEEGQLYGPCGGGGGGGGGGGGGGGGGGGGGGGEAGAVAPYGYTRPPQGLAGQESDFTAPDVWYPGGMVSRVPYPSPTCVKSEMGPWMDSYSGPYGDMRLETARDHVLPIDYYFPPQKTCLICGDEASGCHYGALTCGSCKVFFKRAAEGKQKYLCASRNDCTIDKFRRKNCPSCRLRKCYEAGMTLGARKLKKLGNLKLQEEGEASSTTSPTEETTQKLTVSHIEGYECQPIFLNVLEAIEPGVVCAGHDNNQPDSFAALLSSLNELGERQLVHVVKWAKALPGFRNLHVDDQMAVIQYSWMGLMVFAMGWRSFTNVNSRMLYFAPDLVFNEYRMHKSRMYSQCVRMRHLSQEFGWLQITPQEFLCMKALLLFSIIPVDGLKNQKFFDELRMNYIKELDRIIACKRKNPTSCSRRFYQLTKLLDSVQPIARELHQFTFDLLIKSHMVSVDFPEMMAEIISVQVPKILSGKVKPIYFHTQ

[6] = target: T4, Glucocorticoid receptor (Homo sapiens, UniProt P04150); experiment: Antagonist activity at glucocorticoid receptor by Gal4-DNA binding domain-hormone receptor LBD one-hybrid assay
T4 sequence (P04150 whole entry): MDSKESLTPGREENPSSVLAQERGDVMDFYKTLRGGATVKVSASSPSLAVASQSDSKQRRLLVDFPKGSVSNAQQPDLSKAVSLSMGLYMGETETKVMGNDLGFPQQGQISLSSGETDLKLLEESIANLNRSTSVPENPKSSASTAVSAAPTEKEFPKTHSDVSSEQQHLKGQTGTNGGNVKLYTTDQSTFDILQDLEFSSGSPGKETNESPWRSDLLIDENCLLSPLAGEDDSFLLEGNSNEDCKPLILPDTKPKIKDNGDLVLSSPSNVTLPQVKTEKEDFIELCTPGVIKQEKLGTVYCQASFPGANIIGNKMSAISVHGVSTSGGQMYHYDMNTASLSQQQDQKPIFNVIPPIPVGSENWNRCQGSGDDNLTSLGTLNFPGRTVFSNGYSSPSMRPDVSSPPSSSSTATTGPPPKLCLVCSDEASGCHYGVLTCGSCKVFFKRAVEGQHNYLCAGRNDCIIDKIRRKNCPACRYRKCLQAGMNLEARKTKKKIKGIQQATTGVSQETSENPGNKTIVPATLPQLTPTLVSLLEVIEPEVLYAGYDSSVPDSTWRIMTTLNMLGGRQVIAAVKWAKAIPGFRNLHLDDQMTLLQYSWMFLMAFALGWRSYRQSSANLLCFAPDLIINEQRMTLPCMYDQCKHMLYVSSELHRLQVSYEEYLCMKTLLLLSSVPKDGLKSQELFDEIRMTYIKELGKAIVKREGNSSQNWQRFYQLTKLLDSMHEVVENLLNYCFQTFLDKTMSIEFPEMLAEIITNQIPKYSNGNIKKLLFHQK

[7] = target: T5, Mineralocorticoid receptor (Homo sapiens, UniProt P08235); experiment: Antagonist activity at mineralocorticoid receptor by Gal4-DNA binding domain-hormone receptor LBD one-hybrid assay
T5 sequence (P08235 whole entry): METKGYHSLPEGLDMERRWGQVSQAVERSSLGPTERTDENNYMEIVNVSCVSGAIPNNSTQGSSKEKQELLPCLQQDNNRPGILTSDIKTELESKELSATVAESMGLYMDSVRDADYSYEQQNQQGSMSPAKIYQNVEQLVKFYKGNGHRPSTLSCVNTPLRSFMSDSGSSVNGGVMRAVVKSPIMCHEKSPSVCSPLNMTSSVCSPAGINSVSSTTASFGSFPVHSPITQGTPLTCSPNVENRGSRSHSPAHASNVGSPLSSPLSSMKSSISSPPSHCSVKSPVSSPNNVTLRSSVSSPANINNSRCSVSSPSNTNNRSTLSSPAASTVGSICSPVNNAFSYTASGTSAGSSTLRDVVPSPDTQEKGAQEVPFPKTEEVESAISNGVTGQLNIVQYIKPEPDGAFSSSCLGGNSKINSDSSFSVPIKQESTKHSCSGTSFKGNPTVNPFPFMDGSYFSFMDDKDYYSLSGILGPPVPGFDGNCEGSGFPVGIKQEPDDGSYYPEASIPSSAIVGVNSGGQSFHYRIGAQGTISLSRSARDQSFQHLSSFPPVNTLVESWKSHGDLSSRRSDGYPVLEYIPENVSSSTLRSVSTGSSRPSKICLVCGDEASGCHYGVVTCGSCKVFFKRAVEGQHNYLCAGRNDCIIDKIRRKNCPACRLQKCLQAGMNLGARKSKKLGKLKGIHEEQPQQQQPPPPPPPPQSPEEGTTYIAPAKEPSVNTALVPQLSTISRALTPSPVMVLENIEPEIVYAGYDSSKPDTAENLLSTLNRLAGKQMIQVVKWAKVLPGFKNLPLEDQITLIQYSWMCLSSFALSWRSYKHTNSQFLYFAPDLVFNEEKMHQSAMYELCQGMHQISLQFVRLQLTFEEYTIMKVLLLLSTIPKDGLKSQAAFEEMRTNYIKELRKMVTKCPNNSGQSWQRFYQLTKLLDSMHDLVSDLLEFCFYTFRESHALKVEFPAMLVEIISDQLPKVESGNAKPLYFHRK

pEC50 [1] | pIC50 [2] | pIC50 [3] | SMILES | other results
6.61 |  |  | CC1OCC(=O)Nc2ccc(-c3ccc(C#N)[nH]3)cc21 (stereo not given) | 
 | 6.76 |  | Cn1c(C#N)ccc1-c1ccc2c(c1)C(c1cccc(Cl)c1)(c1cccc(Cl)c1)OCC(=O)N2 | 
 | 6.92 |  | CCC1(c2cccs2)OCC(=O)N(C)c2ccc(-c3ccc(C#N)n3C)cc21 (stereo not given) | 
 | 6.30 |  | CN1C(=O)COC(c2ccccc2)(c2ccccc2)c2cc(-c3ccc(C#N)n3C)ccc21 | 
7.52 |  |  | N#Cc1ccc(-c2ccc3c(c2)C2(CCCCC2)OCC(=O)N3)[nH]1 | 
6.96 |  |  | C[C@]1(c2ccsc2)OCC(=O)Nc2ccc(-c3ccc(C#N)[nH]3)cc21 | 
7.43 |  |  | CN1C(=O)COC(C)(c2cccs2)c2cc(-c3ccc(C#N)n3C)ccc21 (stereo not given) | 

Second part, the compound before the results:

SMILES | pEC50 [1] | pIC50 [2] | pIC50 [3] | other results
Cn1c(C#N)ccc1-c1ccc2c(c1)C(c1ccco1)(c1ccco1)OCC(=O)N2 |  | 8.18 | 7.55 | pIC50 [4]: < 5.00; pIC50 [5]: 6.13; pIC50 [6]: < 5.52; pIC50 [7]: 5.55
Cn1c(C#N)ccc1-c1ccc2c(c1)C(c1ccc(Cl)s1)(c1ccc(Cl)s1)OCC(=O)N2 |  | 6.70 |  | 
Cn1c(C#N)ccc1-c1ccc2c(c1)C(C)(c1ccco1)OCC(=O)N2 (stereo not given) | 9.40 |  |  | pIC50 [4]: < 5.00; pIC50 [5]: 6.67; pIC50 [6]: 6.92; pIC50 [7]: 6.81
CCCC1(c2cccs2)OCC(=O)Nc2ccc(-c3ccc(C#N)n3C)cc21 (stereo not given) |  | 7.25 |  | 
C[C@@]1(c2ccsc2)OCC(=O)Nc2ccc(-c3ccc(C#N)[nH]3)cc21 | 9.30 |  |  | 
CC1OCC(=O)Nc2ccc(-c3ccc(C#N)n3C)cc21 (stereo not given) | 6.86 |  |  | 
CC1(C)OCC(=O)Nc2ccc(-c3ccc(C#N)[nH]3)cc21 | 8.48 |  | 7.97 | 
Cn1c(C#N)ccc1-c1ccc2c(c1)C(C)(c1cccs1)OCC(=O)N2 (stereo not given) | 9.10 |  | 8.62 | 
CC1(c2ccsc2)OCC(=O)Nc2ccc(-c3ccc(C#N)[nH]3)cc21 (stereo not given) | 8.96 |  |  | 
Cn1c(C#N)ccc1-c1ccc2c(c1)C(c1cccs1)(c1cccs1)OCC(=O)N2 |  |  | 7.22 | pIC50 [4]: < 5.00; pIC50 [5]: 6.11; pIC50 [6]: < 5.52; pIC50 [7]: 5.64
Cn1c(C#N)ccc1-c1ccc2c(c1)C(c1ccccc1)(c1ccccc1)OCC(=O)N2 |  | 7.84 | 7.44 | 
CCC1(c2cccs2)OCC(=O)Nc2ccc(-c3ccc(C#N)n3C)cc21 (stereo not given) |  |  | 7.12 | 
Cn1c(C#N)ccc1-c1ccc2c(c1)C(C)(C)OCC(=O)N2 | 8.48 |  |  | 
Cn1c(C#N)ccc1-c1ccc2c(c1)C(C)(c1ccsc1)OCC(=O)N2 (stereo not given) | 9.10 |  | 8.47 | pIC50 [4]: < 5.00; pIC50 [5]: 6.49; pIC50 [6]: 6.90; pIC50 [7]: 6.36
CC1(c2cccs2)OCC(=O)Nc2ccc(-c3ccc(C#N)[nH]3)cc21 (stereo not given) | 9.15 |  | 8.42 | 
CC(C)C1(c2cccs2)OCC(=O)Nc2ccc(-c3ccc(C#N)n3C)cc21 (stereo not given) |  | 7.44 |  | 
